According to patent publication US20240174641A1, “HETEROCYCLIC COMPOUNDS CAPABLE OF […]” (Boehringer Ingelheim International GmbH, priority 2022, published 2024):

tested on: dog STING (dSTING); test: Dog differential scanning fluorimetry (DSF) assay, thermal shift of dog STING protein; assay type: binding; details: DSF (dDSF); 100 μM compound, 3 μM dog STING protein; Tm with ligand minus Tm of protein alone
Text: The protein used for the biophysical experiments was a recombinant dog STING protein comprising its cytosolic cGAMP binding ectodomain. A codon optimized DNA sequence (for expression in Escherichia coli) encoding amino acid residues 149 to 375 of dog STING was synthesized by GeneArt (Regensburg, Germany) and inserted into a pET17b E. coli expression vector. The protein construct encodes an N-terminal 8×His-tag followed by tobacco etch virus protease (TEV) cleavage site and the above STING gene sequence. The resulting protein sequence for the used dog STING protein (SEQ ID No. 1) is listed below:
For expression of the above recombinant dog STING, the construct was transformed into E. coli BL21 DE3 strain and grown in shake flasks in LB-medium at 15° C. Expression was induced by addition of isopropyl β-D-1-thiogalactopyranoside to a final concentration of 1 mM and cultures shaken overnight. Cell pellets were centrifuged and stored at −70° C. until further use. Protein was purified by cell thawing in lysis buffer (20 mM TRIS-HCl, pH 8, 500 mM NaCl, 1 mM DTT, 0.5 mg/ml lysozyme, Complete Protease Inhibitor (Roche) and DNase (Roche)), followed by metal affinity purification using Ni-NTA resins and elution buffer consisting of 20 mM TRIS-HCl, pH 8, 500 mM NaCl, 1 mM DTT, 300 mM imidazole. Cleavage of the His-Tag using TEV-protease took place during dialysis in size exclusion buffer (20 mM TRIS-HCl, pH 8, 100 mM NaCl, 1 mM DTT) over night. To further purify the target protein a reverse Nickel affinity column was used and the flow through was applied to a size exclusion chromatography. The peak fraction was collected and concentrated to 5 mg/mL.
Dye fluorescence is quenched in aqueous environment and increases upon association of the dye with the hydrophobic parts of the unfolding protein. […] The inflection point of the curve represents the “melting” temperature of the protein (Tm) which is calculated numerically using the Boltzmann equation.
The thermal stability of the dog STING protein was measured in assay buffer containing 20 mM Tris, 150 mM NaCl at pH7.5. The assay uses 384-Well qPCR Plates (Catalog #781358, BRAND), Microseal® ‘B’ Adhesive Seals for PCR Plates (Catalog #MSB-1001, BIO-RAD) and was run on a CFX384 Real-Time System (Bio-Rad). A DMSO stock solution of SYPRO orange (SIGMA 55692-500UL) was prepared. Compound stock solutions (10 mM in DMSO) were diluted 1:2 in DMSO to an intermediate compound concentration of 5 mM and then further diluted 1:40 in assay buffer resulting in a compound concentration of 125 μM and 2.5% DMSO. Fluorescent dye stock solution (5000×SYPRO Orange) was then mixed with target protein and buffer to a concentration of 15 μM Protein and 25×SYPRO Orange. 2 μl of this protein-dye-mixture was added to 8 μl compound solution. Final volume was 10 μL. 3-6 well positions were used as negative control (protein with 2% DMSO). The plates were prepared for duplicate measurement and centrifuged for 2 min at 1000 g. In the measurement, 160 cycles of 0.5° C. were used (temperature ramp 15 s/cycle, 15° C. to 95° C.).
Final Assay concentrations for compound characterization were 100 μM compound, 3 μM target protein, 5×SYPRO Orange, and 2% DMSO in 10 μl. All dispensing steps were performed using a HamiltonStar pipetting robot (Hamilton).
Dissociation curves were processed in Bio-Rad CFX Manager. Peak type was set to “negative”. Compound codes for screen were assigned in the plate layout.
Two replicates of TM measurements were averaged, and the standard deviation was calculated. In cases of SD>1.5° C. the measurement was repeated.
The melting point (Tm) obtained for STING protein alone was subtracted from T obtained for protein incubated with ligand to generate ΔTm values.

For Cc1cccc2c(-c3cc(F)cc4nn(C)cc34)nn(-c3ccc(N4CCO[C@@H](CC(=O)O)C4)nc3)c12 [Example 37-2, 2-[(2S)-4-(5-{6″-fluoro-2″,7-dimethyl-1H,2″H-[3,4″-biindazol]-1-yl}pyridin-2-yl)morpholin-2-yl]acetic acid], which “Delta TM” value is on record?
The value was 18.0 °C.

With CC(=O)N1C[C@H]2C[C@@H]1CN2c1ccc(-n2nc(-c3cc(F)cc4nn(C)cc34)c3cccc(C)c32)cn1 [Example 42, 1-[(1R,4R)-5-(5-{6″-fluoro-2″,7-dimethyl-1H,2″H-[3,4″-biindazol]-1-yl}pyridin-2-yl)-2,5-diazabicyclo[2.2.1]heptan-2-yl]ethan-1-one] as the compound, how does the “Delta TM” value read?
The value was 15.8 °C.

With Cc1cccc2c(-c3c(F)ccc4nn(C)cc34)nn(-c3ccc(N4CCOC(CC(=O)O)C4)nc3)c12 [Example 26-2, 2-[(2S)-4-(5-{5″-fluoro-2″,7-dimethyl-1H,2″H-[3,4″-biindazol]-1-yl}pyridin-2-yl)morpholin-2-yl]acetic acid] as the compound, how does the “Delta TM” value read?
The value was 32.0 °C.

With Cc1cccc2c(-c3cc(F)cc4nn(C)cc34)nn(-c3ccc(N4CC5CCC4CC5C(=O)O)nc3)c12 (stereo not drawn) [Example 39, 2-(5-{6″-fluoro-2″,7-dimethyl-1H,2″H-[3,4″-biindazol]-1-yl}pyridin-2-yl)-2-azabicyclo [2.2.2]octane-5-carboxylic acid] as the compound, how does the “Delta TM” value read?
Its value is −0.3 °C.

How did the “Delta TM” value turn out when CC(=O)N1C[C@@H]2C[C@H]1CN2c1ccc(-n2nc(-c3c(F)cc(F)c4nn(C)cc34)c3cccc(C)c32)cn1 [Example 50, 1-[(1S,4S)-5-(5-{5″,7″-difluoro-2″,7-dimethyl-1H,2″H-[3,4″-biindazol]-1-yl}pyridin-2-yl)-2,5-diazabicyclo[2.2.1]heptan-2-yl]ethan-1-one] was run?
Its value is 25.0 °C.

For Cc1cccc2c(-c3cc(F)cc4nn(C)c(F)c34)nn(-c3ccc(N4C[C@@H]5[C@H](C4)[C@H]5C(=O)O)nc3)c12 [Example 75, (1R,5S,6R)-3-(5-{3″,6″-difluoro-2″,7-dimethyl-1H,2″H-[3,4″-biindazol]-1-yl}pyridin-2-yl)-3-azabicyclo[3.1.0]hexane-6-carboxylic acid], which “Delta TM” value is on record?
The value was 21.8 °C.

With CC(=O)N1CCN(c2ccc(-n3nc(-c4ccc(F)c5nn(C)c(F)c45)c4cccc(C)c43)cn2)CC1 [Example 57, 1-[4-(5-{3″,7″-difluoro-2″,7-dimethyl-1H,2″H-[3,4″-biindazol]-1-yl}pyridin-2-yl)piperazin-1-yl]ethan-1-one] as the compound, how does the “Delta TM” value read?
The value was 27.5 °C.

Which “Delta TM” value does the source give for CC(=O)N1CCN(c2ccc(-n3nc(-c4cc(F)cc5nn(C)cc45)c4cccc(C)c43)cn2)CC1 [Example 40, 1-[4-(5-{6″-fluoro-2″,7-dimethyl-1H,2″H-[3,4″-biindazol]-1-yl}pyridin-2-yl)piperazin-1-yl]ethan-1-one] here?
Its value is 17.8 °C.

With Cc1cccc2c(-c3ccc(F)c4nn(C)c(F)c34)nn(-c3ccc(N4C[C@@H]5C[C@H]4C[C@H]5C(=O)O)nc3)c12 (single isomer, unassigned) [Example 56-1] as the compound, how does the “Delta TM” value read?
The value was 33.0 °C.

Cc1cccc2c(-c3c(F)ccc4nn(C)cc34)nn(-c3ccc(N4CC5CCC4CC5C(=O)O)nc3)c12 (single isomer, unassigned) [Example 28-2] was tested. Which “Delta TM” value did it give?
Its value is 25.9 °C.

Cc1cccc2c(-c3cc(F)cc4nn(C)cc34)nn(-c3ccc(N4CCC(C(=O)O)CC4)nc3)c12 [Example 33, 1-(5-{6″-fluoro-2″,7-dimethyl-1H,2″H-[3,4″-biindazol]-1-yl}pyridin-2-yl)piperidine-4-carboxylic acid] was tested. Which “Delta TM” value did it give?
The value was 22.5 °C.

How did the “Delta TM” value turn out when CC(=O)N1CC2CCC1CN2c1ccc(-n2nc(-c3cc(F)cc4nn(C)cc34)c3cccc(C)c32)cn1 (stereo not drawn) [Example 43, 1-[5-(5-{6″-fluoro-2″,7-dimethyl-1H,2″H-[3,4″-biindazol]-1-yl}pyridin-2-yl)-2,5-diazabicyclo[2.2.2]octan-2-yl]ethan-1-one] was run?
Its value is 16.0 °C.

For Cc1cccc2c(-c3cc(F)cc4nn(C)cc34)nn(-c3ccc(N4C[C@@H]5C[C@H]4C[C@H]5C(=O)O)nc3)c12 (single isomer, unassigned) [Example 38-1], which “Delta TM” value is on record?
Its value is 24.8 °C.

How did the “Delta TM” value turn out when Cc1cccc2c(-c3c(F)ccc4nn(C)cc34)nn(-c3ccc(N4CC5CCC4CC5C(=O)O)nc3)c12 (single isomer, unassigned) [Example 28-1] was run?
The value was 26.6 °C.

For Cc1cccc2c(-c3cc(F)cc4nn(C)cc34)nn(-c3ccc(N4CC[C@@H](CC(=O)O)C4)nc3)c12 [Example 35, 2-[(3S)-1-(5-{6″-fluoro-2″,7-dimethyl-1H,2″H-[3,4″-biindazol]-1-yl}pyridin-2-yl)pyrrolidin-3-yl]acetic acid], which “Delta TM” value is on record?
The value was 22.5 °C.

How did the “Delta TM” value turn out when CC(=O)N1CC2CCC1CN2c1ccc(-n2nc(-c3c(F)ccc4nn(C)cc34)c3cccc(C)c32)cn1 (stereo not drawn) [Example 32] was run?
The value was 31.0 °C.

CC(=O)N1CCN(c2ccc(-n3nc(-c4c(F)cc(F)c5nn(C)cc45)c4ccc(F)c(C)c43)cn2)CC1 [Example 71, 1-[4-(5-{5″,6,7″-trifluoro-2″,7-dimethyl-1H,2″H-[3,4″-biindazol]-1-yl}pyridin-2-yl)piperazin-1-yl]ethan-1-one] was tested. Which “Delta TM” value did it give?
The value was 31.3 °C.

With Cc1cccc2c(-c3cccc4nn(C)c(F)c34)nn(-c3ccc(N4C[C@@H]5C[C@H]4C[C@H]5C(=O)O)nc3)c12 (racemic) [Example 19, 2-(5-{3″-fluoro-2″,7-dimethyl-1H,2″H-[3,4″-biindazol]-1-yl}pyridin-2-yl)-2-azabicyclo[2.2.1]heptane-5-carboxylic acid] as the compound, how does the “Delta TM” value read?
The value was 34.3 °C.

How did the “Delta TM” value turn out when Cc1cccc2c(-c3cccc4nn(C)c(F)c34)nn(-c3ccc(N4CC5CCC4CC5C(=O)O)nc3)c12 (single isomer, unassigned) [Example 20-1, 2-(5-{3'-fluoro-2',7-dimethyl-1H,2'H-[3,4'-biindazol]-1-yl}pyridin-2-yl)-2-azabicyclo[2.2.2]octane-5-carboxylic acid] was run?
Its value is 20.9 °C.

Cc1cccc2c(-c3cc(F)cc4nn(C)cc34)nn(-c3ccc(N4C[C@H]5C[C@@H]4C[C@@H]5C(=O)O)nc3)c12 (single isomer, unassigned) [Example 38-2] was tested. Which “Delta TM” value did it give?
The value was 23.0 °C.

With Cc1cccc2c(-c3cc(F)cc4nn(C)cc34)nn(-c3ccc(N4CCO[C@H](CC(=O)O)C4)nc3)c12 [Example 37-1, 2-[(2R)-4-(5-{6″-fluoro-2″,7-dimethyl-1H,2″H-[3,4″-biindazol]-1-yl}pyridin-2-yl)morpholin-2-yl]acetic acid] as the compound, how does the “Delta TM” value read?
Its value is 16.0 °C.

How did the “Delta TM” value turn out when Cc1cccc2c(-c3c(F)cc(F)c4nn(C)cc34)nn(-c3ccc(N4CC5CCC4CC5C(=O)O)nc3)c12 (single isomer, unassigned) [Example 48-1] was run?
The value was 23.9 °C.

Cc1cccc2c(-c3cccc4nn(C)c(F)c34)nn(-c3ccc(N4CC5CCC4CC5C(=O)O)nc3)c12 (single isomer, unassigned) [Example 20-2, 2-(5-{3'-fluoro-2',7-dimethyl-1H,2'H-[3,4'-biindazol]-1-yl}pyridin-2-yl)-2-azabicyclo[2.2.2]octane-5-carboxylic acid] was tested. Which “Delta TM” value did it give?
The value was 22.6 °C.

How did the “Delta TM” value turn out when CC(=O)N1CC2CCC1CN2c1ccc(-n2nc(-c3c(F)cc(F)c4nn(C)cc34)c3cccc(C)c32)cn1 (stereo not drawn) [Example 52, 1-[5-(5-{5″,7″-difluoro-2″,7-dimethyl-1H,2″H-[3,4″-biindazol]-1-yl}pyridin-2-yl)-2,5-diazabicyclo [2.2.2]octan-2-yl]ethan-1-one] was run?
The value was 25.8 °C.
